In the supplement of paper PMC10307832:

Key:
Assay in all cases: relative viability (nuclei count vs DMSO), 5 days (fraction); higher = more cells survive
[1] = test system: SK-MES-1
Procedure, shortened: (§1)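 Lung cancer cell lines in 1536-well plates got either a single drug or a fixed anchor-drug dose together with five library-drug doses (not always all listed) in √10 steps, by pin tool, on the day after seeding. Nuclei were counted after 5 days, and relative viability is the treated-to-vehicle ratio of nuclei counts. Values are medians of duplicate plates.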

[2] = test system: H3255
Procedure, shortened: as §1

[3] = test system: NCI-H520
Procedure, shortened: as §1

[4] = test system: LCLC-97TM1
Procedure, shortened: as §1

[5] = test system: EPLC-272H
Procedure, shortened: as §1

[6] = test system: NCI-H1563
Procedure, shortened: as §1

[7] = test system: NCI-H1651
Procedure, shortened: as §1

[8] = test system: HCC-44
Procedure, shortened: as §1

[9] = test system: NCI-H2087
Procedure, shortened: as §1

[10] = test system: NCI-H2085
Procedure, shortened: as §1

[11] = test system: NCI-H1355
Procedure, shortened: as §1

NC(=O)Nc1cc(-c2cccc(F)c2)sc1C(=O)N[C@H]1CCCNC1 [AZD7762] + C[C@]1(O)C[C@@H](c2nc(-c3ccc4ccc(-c5ccccc5)nc4c3)c3c(N)nccn32)C1 [Linsitinib] (partner 1 µM)
relative viability ([1]; first compound 0.01 µM): 1.06
relative viability ([1]; first compound 0.03162 µM): 1.12
relative viability ([1]; first compound 0.1 µM): 1.11
relative viability ([1]; first compound 0.3162 µM): 1.04
relative viability ([1]; first compound 1 µM): 0.414
relative viability ([2]; first compound 0.01 µM): 0.931
relative viability ([2]; first compound 0.03162 µM): 1.04
relative viability ([2]; first compound 0.1 µM): 0.969
relative viability ([2]; first compound 0.3162 µM): 0.947
relative viability ([2]; first compound 1 µM): 0.817
relative viability ([3]; first compound 0.01 µM): 1.16
relative viability ([3]; first compound 0.03162 µM): 0.893
relative viability ([3]; first compound 0.1 µM): 0.848
relative viability ([3]; first compound 0.3162 µM): 0.551
relative viability ([3]; first compound 1 µM): 0.389
relative viability ([4]; first compound 0.01 µM): 0.179
relative viability ([4]; first compound 0.03162 µM): 0.209
relative viability ([4]; first compound 0.1 µM): 0.214
relative viability ([4]; first compound 0.3162 µM): 0.26
relative viability ([4]; first compound 1 µM): 0.189
relative viability ([5]; first compound 0.01 µM): 1.15
relative viability ([5]; first compound 0.03162 µM): 1.28
relative viability ([5]; first compound 0.1 µM): 1.23
relative viability ([5]; first compound 0.3162 µM): 1.19
relative viability ([5]; first compound 1 µM): 0.871
relative viability ([6]; first compound 0.01 µM): 1.25
relative viability ([6]; first compound 0.03162 µM): 1.25
relative viability ([6]; first compound 0.1 µM): 1.46
relative viability ([6]; first compound 0.3162 µM): 1.12
relative viability ([6]; first compound 1 µM): 0.953
relative viability ([7]; first compound 0.01 µM): 1.03
relative viability ([7]; first compound 0.03162 µM): 0.904
relative viability ([7]; first compound 0.1 µM): 0.902
relative viability ([7]; first compound 0.3162 µM): 0.702
relative viability ([7]; first compound 1 µM): 0.358
relative viability ([8]; first compound 0.01 µM): 0.739
relative viability ([8]; first compound 0.03162 µM): 0.679
relative viability ([8]; first compound 0.1 µM): 0.724
relative viability ([8]; first compound 0.3162 µM): 0.647
relative viability ([8]; first compound 1 µM): 0.861
relative viability ([9]; first compound 0.01 µM): 0.995
relative viability ([9]; first compound 0.03162 µM): 0.986
relative viability ([9]; first compound 0.1 µM): 1.07
relative viability ([9]; first compound 0.3162 µM): 1.03
relative viability ([9]; first compound 1 µM): 1.17
relative viability ([10]; first compound 0.01 µM): 1.03
relative viability ([10]; first compound 0.03162 µM): 0.885
relative viability ([10]; first compound 0.1 µM): 0.874
relative viability ([10]; first compound 0.3162 µM): 0.948
relative viability ([10]; first compound 1 µM): 0.693
relative viability ([11]; first compound 0.01 µM): 0.805
relative viability ([11]; first compound 0.03162 µM): 0.811
relative viability ([11]; first compound 0.1 µM): 0.766
relative viability ([11]; first compound 0.3162 µM): 0.859
relative viability ([11]; first compound 1 µM): 0.762
